Assay results: PubChem BioAssay (NCI)
Several values for one entry are separate records, joined by “and”; a condition that tells them apart may be missing. Equal entries are not always repeated.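 Assay format: 96-well plates, 48-hour exposure. GI50 = concentration required for 50% inhibition of growth. TGI marks complete inhibition of growth.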

Assays:
Assay in all cases: DTP human tumour cell line panel, 48 h
HT29 colon = test system: HT29 colon
HOP-92 NSCLC = test system: HOP-92 NSCLC
SK-MEL-2 melanoma = test system: SK-MEL-2 melanoma
NCI-H226 lung = test system: NCI-H226 lung
BT-549 breast = test system: BT-549 breast
HOP-62 NSCLC = test system: HOP-62 NSCLC
CCRF-CEM leukemia = test system: CCRF-CEM leukemia
MOLT-4 leukemia = test system: MOLT-4 leukemia
HCT-116 colon = test system: HCT-116 colon
SK-MEL-5 melanoma = test system: SK-MEL-5 melanoma

SMILES	GI50 (HT29 colon)	TGI (HT29 colon)	GI50 (HOP-92 NSCLC)	TGI (HOP-92 NSCLC)	GI50 (SK-MEL-2 melanoma)	TGI (SK-MEL-2 melanoma)	GI50 (NCI-H226 lung)	TGI (NCI-H226 lung)	GI50 (BT-549 breast)	TGI (BT-549 breast)	GI50 (HOP-62 NSCLC)	TGI (HOP-62 NSCLC)	GI50 (CCRF-CEM leukemia)	TGI (CCRF-CEM leukemia)	GI50 (MOLT-4 leukemia)	GI50 (HCT-116 colon)	GI50 (SK-MEL-5 melanoma)	TGI (SK-MEL-5 melanoma)	TGI (MOLT-4 leukemia)	TGI (HCT-116 colon)
NCCCn1c2c(c3ccccc3c1=O)C(=O)c1cc3c(cc1-2)OCO3	0.17 µM	1.35 µM	0.568 µM	15.9 µM	3.47 µM	12.8 µM	0.514 µM	3.48 µM	< 0.01 µM	1.77 µM	0.278 µM	12.2 µM	0.0271 µM	0.187 µM	< 0.01 µM	0.213 µM	0.122 µM	0.802 µM		
OCc1ccc(N(Cc2ccc(F)cc2)C2CCC2)cc1Cl	3.89 µM	15.3 µM	0.3 µM	6.69 µM	4.89 µM	20.1 µM	0.0569 µM	0.193 µM	17.7 µM	32.8 µM	2.05 µM	17.5 µM	14.9 µM	34.6 µM	15.7 µM	0.115 µM	9.11 µM	21.8 µM	36.7 µM	3.73 µM
C=C1C(=O)OC2C1C(OC(=O)/C(C)=C/C)CC(O)(CCl)C1C(OC(C)=O)C=C(C)C21O (stereo not given)		31.9 µM		27.9 µM		32.5 µM		> 61.3 µM		22.8 µM		> 66 µM		17.6 µM				34.4 µM	21.1 µM	20.8 µM
COc1cc2c3c(n(CCCO)c(=O)c2cc1OC)-c1cc2c(cc1C3=O)OCO2	> 46.5 µM	> 100 µM	0.226 µM	11.4 µM	31.9 µM	> 100 µM	3.85 µM	50.9 µM	2.22 µM	49 µM	4.28 µM	78.3 µM	3.54 µM	14.4 µM	0.841 µM	2.96 µM	11.3 µM	> 52.9 µM	6.7 µM	> 38.6 µM
COc1ccc(-n2c(-c3ccc(NC(=O)CCCl)cc3)nnc2-c2cc(OC)c(OC)c(OC)c2)cc1	3.03 µM	11.2 µM	4.1 µM	> 14.3 µM	3.01 µM	7.16 µM	10.8 µM	> 14.3 µM	3.14 µM	13.8 µM	3.49 µM	13.4 µM	4.53 µM	> 14.3 µM	3.4 µM	2.81 µM	3.46 µM	10.3 µM	10.6 µM	8.54 µM
Nc1nc(SCC(=O)O)[nH]c(=O)c1N		> 100 µM		> 100 µM		> 100 µM		> 100 µM		> 100 µM		> 100 µM		7.24 µM				> 100 µM	> 100 µM	> 100 µM
COc1ccc(/C=C\c2cc(OC)c(OC)c(OC)c2)cc1NC(=O)[C@@H](N)CO	< 0.0173 µM	20.5 µM	0.0103 µM	64.5 µM	0.0198 µM	> 100 µM	0.0287 µM	> 100 µM	< 0.0139 µM	0.085 µM	0.0267 µM	> 100 µM	0.0263 µM	> 100 µM	0.0432 µM	0.0176 µM	< 0.0112 µM	0.0364 µM	> 100 µM	> 100 µM
C=C(CN1CCc2ccccc2C1)c1ccc(/C=C/C(=O)Nc2ccccc2N)cc1	59.9 µM	> 100 µM	8 µM	52.8 µM	7.51 µM	> 100 µM	2.64 µM	25.4 µM	10.3 µM	> 100 µM	5.17 µM	> 100 µM	1.04 µM	> 100 µM	3.18 µM	1.59 µM	13 µM	31.4 µM	> 100 µM	5.7 µM
O=C1C(Cl)=C(Oc2ccccc2)C(=O)c2ccccc21	3.09 µM	12.3 µM	1.8 µM	4.56 µM	6.56 µM	19.4 µM	12.1 µM	28.7 µM	2.86 µM	9.3 µM	8.55 µM	22.2 µM	2.23 µM	8.32 µM	4.09 µM	1.82 µM	6.26 µM	17.1 µM	30.7 µM	3.41 µM
CCOC(=O)Oc1c(OC)cc(C(=O)c2ccc(OC)c(OC(=O)CCl)c2OC)cc1OC	3.15 µM	18.8 µM	1.78 µM	> 100 µM	0.668 µM	60.2 µM	4.38 µM	37.9 µM	0.996 µM	9.5 µM	0.836 µM	> 100 µM	0.662 µM	> 100 µM	0.994 µM	0.494 µM	0.475 µM	14.9 µM	> 100 µM	36.2 µM
O=c1oc2ccccc2cc1-c1ccc([N+](=O)[O-])cc1		> 100 µM		> 100 µM		> 100 µM		> 100 µM		> 100 µM		> 100 µM		> 100 µM				> 100 µM	> 100 µM	> 100 µM
C[C@@H](Oc1cc(-c2cnn(C3CCNCC3)c2)cnc1N)c1c(Cl)ccc(F)c1Cl	0.437 µM	2.31 µM	0.236 µM	2.62 µM	1.82 µM	4.54 µM	0.701 µM	> 10 µM	5.24 µM	> 10 µM	2.57 µM	> 10 µM	0.621 µM	5.13 µM	0.701 µM	0.619 µM	1.47 µM	2.84 µM	4.39 µM	4.77 µM
COc1cccc(-c2nc(-c3ccc(NS(=O)(=O)c4ccccc4)cc3)[nH]c2-c2ccnc(Br)c2)c1	3.02 µM	> 100 µM	2.46 µM	6.54 µM	2.5 µM	6.62 µM	2.91 µM	> 100 µM	2.72 µM	9.21 µM	3.39 µM	> 100 µM	3.14 µM	> 100 µM	2.74 µM	2.09 µM	1.87 µM	3.49 µM	> 100 µM	5.46 µM
Cc1ccc2c(/C=C/C(=O)c3cc(CN4CCOCC4)c(O)c4nc(C)ccc34)cc(CN3CCOCC3)c(O)c2n1	1.64 µM	3.39 µM	1.11 µM	9.78 µM	0.623 µM	13.1 µM	1.24 µM	4.13 µM	1.22 µM	4.7 µM	0.739 µM	11.8 µM	0.322 µM	1.12 µM	0.386 µM	0.412 µM	0.581 µM	2.32 µM	2.66 µM	3.41 µM
CC1/C=C/C=C/CC/C=C/C=C/C=C/C=C/C(OC2OC(C)C(O)C(N)C2O)CC2OC(CC(O)C(O)CCC(O)CC(O)CC(O)CC(=O)OC(C)C(C)C1O)CC(O)C2C(=O)O (stereo not given)	37.2 µg/mL	32.8 µM and 84.8 µg/mL	42.5 µg/mL	> 100 µM and 150 µg/mL	31.8 µg/mL	92.4 µM and 94.1 µg/mL	28.7 µg/mL	28.3 µM and 53.6 µg/mL	38.8 µg/mL	34.6 µM and 116 µg/mL	25.4 µg/mL	35.8 µM and 55.3 µg/mL		59.4 µM		37.7 µg/mL	47.3 µg/mL	58.9 µM and 150 µg/mL	38.2 µM	32.1 µM and 112 µg/mL
COc1ccc2c(CN3CCC(CO)CC3)cc3cc4c(cc3c2c1)OCO4	0.134 µM	2.6 µM	0.0911 µM	0.633 µM	0.193 µM	0.636 µM	0.225 µM	0.56 µM	0.6 µM	3.87 µM	0.272 µM	2.03 µM		0.373 µM	0.175 µM	0.069 µM	0.172 µM	0.495 µM	1.44 µM	0.529 µM
O=C(Nc1cccc(NS(=O)(=O)c2ccc(F)cc2)c1)c1ccc(-c2ccccc2)cc1	4.85 µM	18.6 µM	1.93 µM	8.22 µM	2.42 µM	7.88 µM	3.22 µM	24.3 µM	2.99 µM	8.27 µM	4.66 µM	37.2 µM	3.46 µM	> 100 µM	3.05 µM	3.48 µM	1.88 µM	3.74 µM	14.5 µM	13.4 µM
O=C1NC(=O)[C@@H](c2cn3c4c(cccc24)CCC3)[C@@H]1c1c[nH]c2ccccc12	0.312 µM and 0.321 µM	> 4.4 µM and 1.57 µM	0.354 µM and 1.68 µM	> 10 µM and 25.5 µM	0.37 µM and 0.57 µM	> 10 µM and 20.8 µM	> 2.61 µM and 1.48 µM	> 10 µM and 17.9 µM	0.522 µM and 1.1 µM	> 10 µM and 17.7 µM	0.423 µM and 0.465 µM	> 10 µM and 16.8 µM	0.288 µM and 0.429 µM	> 10 µM and 41.2 µM	0.717 µM and 0.891 µM	0.377 µM and 0.458 µM	0.266 µM and 0.289 µM	1.36 µM and 3.07 µM	> 10 µM and 18.1 µM	> 6.16 µM and 10.6 µM
